The text below walks through data of publication PMC10996005, “Identification and Development of Cyclic Peptide Inhibitors of Hypoxia Inducible Factors 1 and 2 That Disrupt Hypoxia-Response Signaling in Cancer Cells” (Journal of the American Chemical Society, 2024).

“Also recorded” adds a separate entry of the source. Where a SMILES comes first, the peptide text is derived from it. [ ]: non-standard residue; d: D form. Phe(4-I) = N[C@@H](Cc1ccc(I)cc1)C(=O)O

The target in one test is T1, HIF-1α/HIF-1β PPI (Homo sapiens, UniProt Q16665).
T1 construct: endogenous in cells; host or cells: HeLa
T1 sequence (Q16665 whole entry): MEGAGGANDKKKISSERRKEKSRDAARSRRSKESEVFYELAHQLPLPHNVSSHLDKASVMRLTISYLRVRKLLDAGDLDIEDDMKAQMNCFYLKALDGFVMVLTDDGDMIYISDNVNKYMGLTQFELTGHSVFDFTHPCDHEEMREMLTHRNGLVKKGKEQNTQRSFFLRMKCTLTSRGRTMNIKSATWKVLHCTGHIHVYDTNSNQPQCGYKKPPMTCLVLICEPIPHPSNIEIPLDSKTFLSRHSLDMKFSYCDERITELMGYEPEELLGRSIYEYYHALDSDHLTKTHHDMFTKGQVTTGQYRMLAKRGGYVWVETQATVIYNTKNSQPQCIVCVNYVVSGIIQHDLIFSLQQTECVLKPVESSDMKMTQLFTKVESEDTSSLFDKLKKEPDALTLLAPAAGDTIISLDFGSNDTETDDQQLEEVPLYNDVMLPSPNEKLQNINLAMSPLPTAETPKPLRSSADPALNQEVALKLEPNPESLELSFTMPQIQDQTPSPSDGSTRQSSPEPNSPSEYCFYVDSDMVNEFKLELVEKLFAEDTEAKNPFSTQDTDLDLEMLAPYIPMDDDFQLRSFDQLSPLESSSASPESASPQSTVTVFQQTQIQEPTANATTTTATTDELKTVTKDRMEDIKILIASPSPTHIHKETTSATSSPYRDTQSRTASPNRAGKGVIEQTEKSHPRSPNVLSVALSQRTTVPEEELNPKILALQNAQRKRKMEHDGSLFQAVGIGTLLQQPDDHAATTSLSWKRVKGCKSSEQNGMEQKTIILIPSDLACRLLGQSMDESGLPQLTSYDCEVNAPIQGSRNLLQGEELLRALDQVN
The experiment in a line: Proximity-ligation assay (PLA) in DFX-treated HeLa cells. The format is cell-based. As to conditions: 50 μM compound vs DMSO. The protocol: We used a previously reported[26] proximity-ligation assay (PLA) to assess whether cyclo-CRLII(4-iodo)F disrupts the HIF-1α/HIF-1β PPI in cells. HeLa cells were treated with the hypoxia mimic desferrioxamine (DFX) and treated with either DMSO (control) or 50 μM of cyclo-CRLII(4-iodo)F; in the control-treated samples, we observed the red puncta associated with the PLA signal from the targeted PPI (Figure 6c, upper panels).
(§1) All reagents were purchased from Fisher Scientific or Sigma Aldrich UK unless specified otherwise.
(§2) Restriction enzymes and microbiology reagents were purchased from New England Biolabs Inc., Fisher Scientific (UK) or Promega (UK) and were used as directed by the manufacturer. Primers and oligonucleotides were synthesised by Integrated DNA Technologies (UK). DNA sequencing was carried out by Eurofins MWG Operon (Germany).
(§3) Construction of the RTHS and SICLOPPS library, screening, purification of recombinant HIF proteins, and the PLA was conducted as previously described in Miranda et al., J. Am. Chem. Soc., 2013, 135(28); […]
The labelled protein was separated from unreacted dye by elution through a PD minitrap G-25 column (GE healthcare). […] Extent of labelling was measured by the absorbance obtained using the UV-vis mode on a NanoDrop ND-1000 Spectrophotometer (NanoDrop Technologies, USA). […]

Another test concerns VEGF gene in 786-O cells. The test can be described thus: qPCR of HIF-2-driven VEGF in 786-O cells. Format: cell-based. The conditions noted are these: 50 μM. The protocol: (§4) The effect of our lead inhibitor on hypoxia-response signaling was measured by qPCR in cancer cell lines. Cells were treated with either 2 μM of an analogue of the HIF-2-specific inhibitor belzutifan, PT2399 (control), or 50 μM of cyclo-CRLII(4-iodo)F, incubated in hypoxia for […], and the levels of the hypoxia-response genes CAIX([41],[42]) and VEGF([43]) were measured by qPCR. We observed a 51% drop in CAIX transcription and a 43% drop in VEGF transcription in hypoxic MCF-7 (breast cancer) cells treated with 50 μM of cyclo-CRLII(4-iodo)F versus hypoxic MCF-7 cells treated with DMSO only (Figure 6e). […] We also observed a 49% drop in CAIX expression in hypoxic HeLa (cervical cancer) cells treated with cyclo-CRLII(4-iodo)F (Figure S9b). […] We observed a 35% drop in HIF-2-driven VEGF transcription in 786-O cells treated with 50 μM of cyclo-CRLII(4-iodo)F compared to a 50% decrease in 786-O cells treated with PT2399. […]
(§5) Realtime PCR (qPCR) Assay
Cells were plated on 6cm dishes at 80% confluency and incubated overnight under normoxic conditions. The cells were then treated with compound and incubated for 18 hours in hypoxic conditions. After treatment, the cells were washed with PBS and lysed under hypoxic conditions. The total RNA was extracted from the cells using a commercial RNA extraction kit (Fisher Scientific) following the manufacturer's instructions. […]

The next test concerns the target T2, HIF-1α PAS-B domain (Homo sapiens, UniProt Q16665).
T2 construct: made in house
The test can be described thus: MST binding to the PAS-B domain of HIF-1α. The protocol:
as §1, §2, §3
Protein labelling with MST dye
Protein was buffer exchanged from storage buffer into labelling buffer (0.1 M NaHCO3, pH 8.5) using a PD spintrap G-25 column (GE healthcare). The protein concentration was then adjusted to 20 µM.
The commercially sourced MST dye (NanoTemper) was prepared as a 470 µM solution in DMSO, which was then further diluted to 60 µM using labelling buffer. To the protein solution was added an equal volume of dye solution, and the labelling reaction was left for 1 hour in the dark at room temperature.
The labelled protein was separated from unreacted dye by elution through a PD minitrap G-25 column (GE healthcare). Labelled protein was then aliquoted and stored at -80 °C. Extent of labelling was measured by the absorbance obtained using the UV-vis mode on a NanoDrop ND-1000 Spectrophotometer (NanoDrop Technologies, USA).
Labelled protein was thawed on ice and diluted to 50 nM in assay buffer containing 50 mM Tris pH 8.0, 150 mM NaCl, 5% (v/v) glycerol, 1 mM TCEP and 0.05% TWEEN-20. The protein solution was then centrifuged at 12000 rpm for 15 minutes at 4 °C and left on ice. Compounds were prepared and serially diluted in DMSO at 10x assay concentration, before diluting to 2x assay concentration in assay buffer.
The 2x compound solutions were then mixed 1:1 (v/v) with 50 nM labelled protein solution and left to incubate for 1 hour at room temperature. Solutions were then loaded into Monolith NT.115 Premium Capillaries (NanoTemper) and placed in the sample tray. MST experiments were carried out

Test [1] concerns CAIX and VEGF genes in Panc-1 cells. The experiment in a line: qPCR of hypoxia-response genes in Panc-1 cells. Format: cell-based. As to conditions: hypoxic Panc-1 cells, 50 μM, vs DMSO-treated hypoxic cells. The protocol: as §4, §5
Cells were plated on 6cm dishes at 80% confluency and incubated overnight under normoxic conditions. The cells were then treated with compound and incubated for 18 hours in hypoxic conditions. After treatment, the cells were washed with PBS and lysed under hypoxic conditions. The total RNA was extracted from the cells using a commercial RNA extraction kit (Fisher Scientific) following the manufacturer's instructions. A commercial reverse transcription kit (Promega) was used to generate cDNA. The MyTaq™ Mix master mix and appropriate primers targeting CAIX and VEGF were used to perform the qPCR reaction using a qPCR machine (Bio-Rad).

T2 sequence (Q16665 238-349 limits assumed): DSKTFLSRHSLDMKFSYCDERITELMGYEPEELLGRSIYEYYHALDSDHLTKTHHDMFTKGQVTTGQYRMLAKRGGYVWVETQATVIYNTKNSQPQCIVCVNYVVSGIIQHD

`CC[C@H](C)[C@@H]1NC(=O)[C@H](CC(C)C)NC(=O)[C@H](CCCNC(=N)N)NC(=O)[C@H](CS)NC(=O)[C@H](Cc2ccc(I)cc2)NC(=O)[C@H]([C@@H](C)CC)NC1=O` [cyclo-CRLII(4-iodo)F] (cyclo(CRLII[Phe(4-I)])): at HIF-1α/HIF-1β PPI, the “PLA signal (red puncta) of the HIF-1α/HIF-1β PPI” value is reported as “red puncta are absent; also recorded: the red puncta were not observed”. Besides, the “drop in HIF-2-driven VEGF transcription” value in the test with VEGF gene in 786-O cells was 35%. Further, the “improvement in HIF-1α binding affinity compared to the parent cyclic peptide cyclo-CRLIIF” value at HIF-1α PAS-B domain (MST KD ratio) amounted to 4.6 fold. At HIF-1α PAS-B domain (MST, mean ± SEM, n = 2 (n = 1 for most C1 analogues, n = 3 in Figure S2), read-out: KD for HIF-1α PAS-B), the Kd was 800 ± 200 nM. Moreover, in test [1], the “drop in CAIX expression” value was found to be 41% and the “drop in VEGF transcription” value turned out to be 26%.

As usually defined, the Kd is the concentration at which binding is half-saturated.
